{"source": "patent US9738634B2", "about": "“Heterocyclic amide compound and herbicide” (SYNGENTA PARTICIPATIONS AG, priority 2013, dated 2017)", "assay_type_in_all_cases": "in vivo", "key": {"wheat": {"system": "wheat", "assay": "Test Example 3: soil treatment, effect on crop; e: wheat", "details": "soil treatment, treatment dosage 320 g/ha", "outline": "(§1)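 Crop and weed responses were judged three weeks after a uniform surface spray of the water-diluted emulsion at the given g/ha rate. Seeds sat beneath about 1.5 cm of sterilized diluvial soil, and boxes stood in a greenhouse at 25 to 30° C.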"}, "bulrush [1]": {"system": "bulrush", "assay": "Test Example 2: weedkilling efficacy, growth period weed treatment in the submerged state; B: bulrush", "details": "treatment dosage 320 g/ha", "outline": "(§2)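 Barnyard grass, bulrush and oval-leafed pondweed sown in alluvial soil under 4 cm flooding, greenhouse 25 to 30° C. At 1-2 leaf stage, water-diluted emulsion applied to the water surface at stated g/ha dosages; effects scored 3 weeks later.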"}, "redroot pigweed": {"system": "redroot pigweed", "assay": "Test Example 3: weedkilling efficacy through soil treatment; L: redroot pigweed", "details": "soil treatment, treatment dosage 320 g/ha", "outline": "as §1"}, "common wind-grass": {"system": "common wind-grass", "assay": "Test Example 3: weedkilling efficacy through soil treatment; J: common wind-grass", "details": "soil treatment, treatment dosage 320 g/ha", "text": "(§3) Weedkilling Efficacy Test Through Soil Treatment\n(§4) Sterilized diluvial soil was introduced into 21 cm long, 13 cm wide, 7 cm deep plastic boxes, and seeds of crabgrass, green foxtail, barnyard grass, wild oat, black-grass, Italian ryegrass, common wind-grass, Indian mallow, redroot pigweed, fig-leafed goosefoot, chickweed, catchweed, birds-eye speedwell, corn, soybean, rice, wheat, beet and rapeseed were each spot-sown, and covered with about 1.5 cm of soil. Next, emulsions of compounds of the present invention prepared according to compounding example 2 were diluted with water to give the specified dosages, and applied uniformly onto the soil surface with a small sprayer. The plants were grown by placing the plastic boxes in a greenhouse at 25 to 30° C., and 3 weeks after the pesticide treatment the effect on each type of plant was investigated on the basis of the assessment criteria of test example 1.\n(§5) A: barnyard grass, B: bulrush, C: oval-leafed pondweed, D: crabgrass, E: green foxtail, F: barnyard grass, G: wild oat, H: black-grass, I: Italian ryegrass, J: common wind-grass, K: Indian mallow, L: redroot pigweed, M: fig-leafed goosefoot, N: chickweed, O: catchweed, p: birds-eye speedwell, a: transplanted rice, b: directly sown rice, c: corn, d: soybean, e: wheat, f: beet, g: rapeseed\n(§6) Further, pesticide dosage (g/ha) indicates the concentration regulated such that treatment was with only the stated number of grams (g), when calculated per hectare (ha)."}, "rapeseed": {"system": "rapeseed", "assay": "Test Example 3: soil treatment, effect on crop; g: rapeseed", "details": "soil treatment, treatment dosage 320 g/ha", "text": "as §3, §4, §5, §6"}, "Indian mallow": {"system": "Indian mallow", "assay": "Test Example 3: weedkilling efficacy through soil treatment; K: Indian mallow", "details": "soil treatment, treatment dosage 320 g/ha", "outline": "as §1"}, "oval-leafed pondweed [2]": {"system": "oval-leafed pondweed", "assay": "Test Example 2: weedkilling efficacy, growth period weed treatment in the submerged state; C: oval-leafed pondweed", "details": "treatment dosage 320 g/ha", "outline": "as §2"}, "chickweed": {"system": "chickweed", "assay": "Test Example 3: weedkilling efficacy through soil treatment; N: chickweed", "details": "soil treatment, treatment dosage 320 g/ha", "outline": "as §1"}, "soybean": {"system": "soybean", "assay": "Test Example 3: soil treatment, effect on crop; d: soybean", "details": "soil treatment, treatment dosage 320 g/ha", "outline": "as §1"}, "barnyard grass [3]": {"system": "barnyard grass", "assay": "Test Example 1: weedkilling efficacy, preemergent weed treatment in the submerged state; A: barnyard grass", "details": "treatment dosage 320 g/ha", "outline": "(§7)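 Pots of alluvial soil flooded 4 cm deep, sown with barnyard grass, bulrush and oval-leafed pondweed and transplanted with 2.5-leaf rice. Emulsified compound applied to the water surface on sowing day at stated g/ha; greenhouse 25–30 °C, effects assessed 3 weeks after treatment.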"}, "barnyard grass [4]": {"system": "barnyard grass", "assay": "Test Example 3: weedkilling efficacy through soil treatment; F: barnyard grass", "details": "soil treatment, treatment dosage 320 g/ha", "text": "as §3, §4, §5, §6"}, "beet": {"system": "beet", "assay": "Test Example 3: soil treatment, effect on crop; f: beet", "details": "soil treatment, treatment dosage 320 g/ha", "outline": "as §1"}, "crabgrass": {"system": "crabgrass", "assay": "Test Example 3: weedkilling efficacy through soil treatment; D: crabgrass", "details": "soil treatment, treatment dosage 320 g/ha", "outline": "as §1"}, "corn": {"system": "corn", "assay": "Test Example 3: soil treatment, effect on crop; c: corn", "details": "soil treatment, treatment dosage 320 g/ha", "outline": "as §1"}, "Italian ryegrass": {"system": "Italian ryegrass", "assay": "Test Example 3: weedkilling efficacy through soil treatment; I: Italian ryegrass", "details": "soil treatment, treatment dosage 320 g/ha", "outline": "as §1"}, "birds-eye speedwell": {"system": "birds-eye speedwell", "assay": "Test Example 3: weedkilling efficacy through soil treatment; p: birds-eye speedwell", "details": "soil treatment, treatment dosage 320 g/ha", "outline": "as §1"}, "black-grass": {"system": "black-grass", "assay": "Test Example 3: weedkilling efficacy through soil treatment; H: black-grass", "details": "soil treatment, treatment dosage 320 g/ha", "outline": "as §1"}, "oval-leafed pondweed [5]": {"system": "oval-leafed pondweed", "assay": "Test Example 1: weedkilling efficacy, preemergent weed treatment in the submerged state; C: oval-leafed pondweed", "details": "treatment dosage 320 g/ha", "outline": "as §7"}, "barnyard grass [6]": {"system": "barnyard grass", "assay": "Test Example 2: weedkilling efficacy, growth period weed treatment in the submerged state; A: barnyard grass", "details": "treatment dosage 320 g/ha", "outline": "as §2"}, "bulrush [7]": {"system": "bulrush", "assay": "Test Example 1: weedkilling efficacy, preemergent weed treatment in the submerged state; B: bulrush", "details": "treatment dosage 320 g/ha", "outline": "as §7"}, "directly sown rice": {"system": "directly sown rice", "assay": "Test Example 3: soil treatment, effect on crop; b: directly sown rice", "details": "soil treatment, treatment dosage 320 g/ha", "outline": "as §1"}, "wild oat": {"system": "wild oat", "assay": "Test Example 3: weedkilling efficacy through soil treatment; G: wild oat", "details": "soil treatment, treatment dosage 320 g/ha", "outline": "as §1"}, "transplanted rice": {"system": "transplanted rice", "assay": "Test Example 1: preemergent weed treatment in the submerged state, effect on crop; a: transplanted rice", "details": "treatment dosage 320 g/ha", "outline": "as §7"}, "green foxtail": {"system": "green foxtail", "assay": "Test Example 3: weedkilling efficacy through soil treatment; E: green foxtail", "details": "soil treatment, treatment dosage 320 g/ha", "outline": "as §1"}}, "data": [{"smiles": "CC(C)(C(=O)Nc1ccc2ccccc2n1)N1COCN(c2ccccc2)C1=O", "note": "[A-1-24]", "values": [{"measurement": "e: wheat, effect on crop grade", "setting": "wheat", "value": "0 (weed kill ratio 5% or less (practically no effect))"}, {"measurement": "B (bulrush) weedkilling efficacy grade", "setting": "bulrush [1]", "value": "5 (weed kill ratio 90% or more, (practically complete withering))"}, {"measurement": "L: redroot pigweed, weedkilling efficacy grade", "setting": "redroot pigweed", "value": "0 (weed kill ratio 5% or less (practically no effect))"}, {"measurement": "J: common wind-grass, weedkilling efficacy grade", "setting": "common wind-grass", "value": "4 (weed kill ratio 70% or more, less than 90%)"}, {"measurement": "g: rapeseed, effect on crop grade", "setting": "rapeseed", "value": "0 (weed kill ratio 5% or less (practically no effect))"}, {"measurement": "K: Indian mallow, weedkilling efficacy grade", "setting": "Indian mallow", "value": "0 (weed kill ratio 5% or less (practically no effect))"}, {"measurement": "C (oval-leafed pondweed) weedkilling efficacy grade", "setting": "oval-leafed pondweed [2]", "value": "5 (weed kill ratio 90% or more, (practically complete withering))"}, {"measurement": "N: chickweed, weedkilling efficacy grade", "setting": "chickweed", "value": "0 (weed kill ratio 5% or less (practically no effect))"}, {"measurement": "d: soybean, effect on crop grade", "setting": "soybean", "value": "0 (weed kill ratio 5% or less (practically no effect))"}, {"measurement": "A: barnyard grass, weed kill grade", "setting": "barnyard grass [3]", "value": "5 (weed kill ratio 90% or more, (practically complete withering))"}, {"measurement": "F: barnyard grass, weedkilling efficacy grade", "setting": "barnyard grass [4]", "value": "2 (weed kill ratio 20% or more, less than 40%)"}, {"measurement": "f: beet, effect on crop grade", "setting": "beet", "value": "0 (weed kill ratio 5% or less (practically no effect))"}, {"measurement": "D: crabgrass, weedkilling efficacy grade", "setting": "crabgrass", "value": "3 (weed kill ratio 40% or more, less than 70%)"}, {"measurement": "c: corn, effect on crop grade", "setting": "corn", "value": "0 (weed kill ratio 5% or less (practically no effect))"}, {"measurement": "I: Italian ryegrass, weedkilling efficacy grade", "setting": "Italian ryegrass", "value": "3 (weed kill ratio 40% or more, less than 70%)"}, {"measurement": "P: birds-eye speedwell, weedkilling efficacy grade", "setting": "birds-eye speedwell", "value": "4 (weed kill ratio 70% or more, less than 90%)"}, {"measurement": "H: black-grass, weedkilling efficacy grade", "setting": "black-grass", "value": "1 (weed kill ratio 5% or more, less than 20%)"}, {"measurement": "C: oval-leafed pondweed, weed kill grade", "setting": "oval-leafed pondweed [5]", "value": "5 (weed kill ratio 90% or more, (practically complete withering))"}, {"measurement": "A (barnyard grass) weedkilling efficacy grade", "setting": "barnyard grass [6]", "value": "4 (weed kill ratio 70% or more, less than 90%)"}, {"measurement": "B: bulrush, weed kill grade", "setting": "bulrush [7]", "value": "5 (weed kill ratio 90% or more, (practically complete withering))"}, {"measurement": "b: directly sown rice, effect on crop grade", "setting": "directly sown rice", "value": "0 (weed kill ratio 5% or less (practically no effect))"}, {"measurement": "G: wild oat, weedkilling efficacy grade", "setting": "wild oat", "value": "0 (weed kill ratio 5% or less (practically no effect))"}, {"measurement": "a: transplanted rice, effect on crop grade", "setting": "transplanted rice", "value": "0 (weed kill ratio 5% or less (practically no effect))"}, {"measurement": "E: green foxtail, weedkilling efficacy grade", "setting": "green foxtail", "value": "3 (weed kill ratio 40% or more, less than 70%)"}]}]}
